Reference: patent publication US8901307B2, “Chemical compounds 251” (AstraZeneca AB, priority 2008, dated 2014)
Structures can show the parent of a compound that is named as a salt. Where two headings read alike, the source gives them in different places.

Assays:
[1] = biological target: T1, human His-PIM1 [2-313] (Homo sapiens, UniProt P11309); test: PIM1 in-vitro mobility shift assay (Caliper LC3000, FL-Ahx-Bad phosphorylation); assay type: biochemical; conditions: 1.5 h, read-out: PIM1 % I at 0.3 uM
T1 construct: purified human His-PIM1 [2-313] enzyme; His (N); purchased University of Dundee, Scotland; host or cells: baculovirus system
Method in brief: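 Compound preincubated 20 min at 25 °C with 2.4 nM PIM1, 3.6 µM FL-Ahx-Bad peptide and 240 µM ATP (1.2× mix concentrations). Reaction started with 24 mM MgCl2 mix, run 90 min at 25 °C, EDTA-stopped. Phospho/unphospho peptide separated by microfluidic mobility shift; percent inhibition from ratiometric turnover.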

[2] = biological target: T2, human His-PIM2 [23-299] (Homo sapiens, UniProt Q9P1W9); test: PIM2 in-vitro mobility shift assay (Caliper LC3000, FL-Ahx-Bad phosphorylation); assay type: biochemical; conditions: 1.5 h; percent inhibition at 0.3 uM compound; read-out: PIM2 % I at 0.3 uM
T2 construct: purified human His-PIM2 [23-299] enzyme; His (N); host or cells: E. coli

[3] = percent inhibition at 0.3 uM compound

T2 sequence (Q9P1W9 23-299): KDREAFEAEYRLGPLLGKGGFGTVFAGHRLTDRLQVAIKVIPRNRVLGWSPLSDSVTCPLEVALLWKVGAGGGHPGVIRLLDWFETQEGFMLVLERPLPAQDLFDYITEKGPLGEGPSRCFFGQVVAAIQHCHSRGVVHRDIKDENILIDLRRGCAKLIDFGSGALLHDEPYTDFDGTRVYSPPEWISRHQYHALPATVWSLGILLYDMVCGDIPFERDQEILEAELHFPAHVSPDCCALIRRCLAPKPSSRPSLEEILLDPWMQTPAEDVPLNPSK
T1 sequence (P11309 2-313): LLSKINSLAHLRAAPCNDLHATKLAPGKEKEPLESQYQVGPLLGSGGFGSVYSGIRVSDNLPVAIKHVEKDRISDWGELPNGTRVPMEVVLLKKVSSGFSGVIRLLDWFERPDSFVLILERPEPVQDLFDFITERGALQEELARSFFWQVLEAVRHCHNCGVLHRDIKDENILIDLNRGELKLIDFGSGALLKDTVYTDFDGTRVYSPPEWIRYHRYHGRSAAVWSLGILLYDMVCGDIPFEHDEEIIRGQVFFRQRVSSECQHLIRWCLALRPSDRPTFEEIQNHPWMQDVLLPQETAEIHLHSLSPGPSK

SMILES	inhibition at 0.3 µM [1, 3] [%]	inhibition at 0.3 µM [2] [%]	inhibition at 0.3 µM [1] [%]
NC[C@@H]1CCN(c2c(Cl)cccc2/C=C2\SC(=O)NC2=O)C1 [Example 122C, (S,Z)-5-(2-(3-(aminomethyl)pyrrolidin-1-yl)-3-chlorobenzylidene)thiazolidine-2,4-dione]	> 95	> 95	–
N[C@@H]1CCCN(c2c(Cl)cccc2/C=C2\SC(=O)NC2=O)C1 [Example 122D, (R,Z)-5-(2-(3-aminopiperidin-1-yl)-3-chlorobenzylidene)thiazolidin-2,4-dione hydrochloride]	> 95	> 95	–
COc1cccc(/C=C2\SC(=O)NC2=O)c1N1CCC[C@@H](N)C1 [Example 122E, (R,Z)-5-(2-(3-aminopiperidin-1-yl)-3-methoxybenzylidene)thiazolidine-2,4-dione hydrochloride]	> 95	> 95	–
N[C@@H]1CCCN(c2c(Br)cccc2/C=C2\SC(=O)NC2=O)C1 [Example 122F, (R,Z)-5-(2-(3-aminopiperidin-1-yl)-3-bromobenzylidene)thiazolidine-2,4-dione hydrochloride]	–	> 95	> 95
N[C@@H]1CCN(c2c(Cl)cccc2/C=C2\SC(=O)NC2=O)C1 [Example 122G, (R,Z)-5-(2-(3-aminopyrrolidin-1-yl)-3-chlorobenzylidene)thiazolidin-2,4-dione hydrochloride]	> 95	92.1	–
N[C@H]1CCN(c2c(Br)cccc2/C=C2\SC(=O)NC2=O)C1 [Example 122H, (S,Z)-5-(2-(3-aminopyrrolidin-1-yl)-3-bromobenzylidene)thiazolidine-2,4-dione hydrochloride]	> 95	> 95	–
CCOc1cccc(/C=C2\SC(=O)NC2=O)c1N1CCC[C@@H](N)C1 [Example 122I, (R,Z)-5-(2-(3-aminopiperidin-1-yl)-3-ethoxybenzylidene)thiazolidine-2,4-dione hydrochloride]	> 95	> 95	–
N[C@@H]1CCCN(c2c(/C=C3\SC(=O)NC3=O)cccc2OCC2CCCCC2)C1 [Example 122K, (R,Z)-5-(2-(3-aminopiperidin-1-yl)-3-(cyclohexylmethoxy)benzylidene)thiazolidine-2,4-dione hydrochloride]	> 95	> 95	–
N[C@@H]1CCCN(c2c(/C=C3\SC(=O)NC3=O)cccc2OC2CCCCC2)C1 [Example 122L, hydrochloride]	> 95	> 95	–
O=C1NC(=O)/C(=C/c2cccc(Cl)c2N2CCCNCC2)S1 [Example 122N, (Z)-5-(3-chloro-2-(1,4-diazepan-1-yl)benzylidene)thiazolidine-2,4-dione hydrochloride]	> 95	> 95	–
CC(C)Oc1cccc(/C=C2\SC(=O)NC2=O)c1N1CCC[C@@H](N)C1 [Example 122O, (R,Z)-5-(2-(3-aminopiperidin-1-yl)-3-isopropoxybenzylidene)thiazolidine-2,4-dione hydrochloride]	> 95	> 95	–
CC(C)Oc1cccc(/C=C2\SC(=O)NC2=O)c1N1CC[C@H](N)C1 [Example 122P, (S,Z)-5-(2-(3-aminopyrrolidin-1-yl)-3-isopropoxybenzylidene)thiazolidine-2,4-dione hydrochloride]	> 95	> 95	–
CCOc1cccc(/C=C2\SC(=O)NC2=O)c1N1CC[C@H](N)C1 [Example 122Q, (S,Z)-5-(2-(3-aminopyrrolidin-1-yl)-3-ethoxybenzylidene)thiazolidine-2,4-dione hydrochloride]	> 95	> 95	–
NCc1ccc(CN[C@@H]2CCCN(c3c(Cl)cccc3/C=C3\SC(=O)NC3=O)C2)cc1 [Example 122R, (R,Z)-5-(2-(3-(4-(aminomethyl)benzylamino)piperidin-1-yl)-3-chlorobenzylidene)thiazolidine-2,4-dione hydrochloride]	> 95	89.6	–
CNCCN[C@@H]1CCCN(c2c(Cl)cccc2/C=C2\SC(=O)NC2=O)C1 [Example 122S, (R,Z)-5-(3-chloro-2-(3-(2-(methylamino)ethylamino)piperidin-1-yl)benzylidene)thiazolidine-2,4-dione hydrochloride]	> 95	> 95	–
N[C@H]1CN(c2c(Cl)cccc2/C=C2\SC(=O)NC2=O)C[C@@H]1O [Example 122T, (Z)-5-(2-((3S,4S)-3-amino-4-hydroxypyrrolidin-1-yl)-3-chlorobenzylidene)thiazolidine-2,4-dione hydrochloride]	> 95	> 95	–
CNC1CN(c2c(Cl)cccc2/C=C2\SC(=O)NC2=O)CCC1C (centres unmarked) [Example 122U, (Z)-5-(3-chloro-2-(4-methyl-3-(methylamino)piperidin-1-yl)benzylidene)thiazolidine-2,4-dione hydrochloride]	> 95	> 95	–
CC1CCN(c2c(Cl)cccc2/C=C2\SC(=O)NC2=O)CC1N (centres unmarked) [Example 122V, (Z)-5-(2-(3-amino-4-mnethylpiperidin-1-yl)-3-chlorobenzylidene)thiazolidine-2,4-dione hydrochloride]	> 95	> 95	–
N[C@@H]1CCCN(c2ccccc2/C=C2\SC(=O)NC2=O)C1 [Example 122W, (R,Z)-5-(2-(3-aminopiperidin-1-yl)benzylidene)thiazolidine-2,4-dione hydrochloride]	> 95	> 95	–

SMILES	inhibition at 0.3 µM [1, 3] [%]	inhibition at 0.3 µM [2] [%]	inhibition at 0.3 µM [1] [%]
N[C@H]1CCN(c2ccccc2/C=C2\SC(=O)NC2=O)C1 [Example 122X, (S,Z)-5-(2-(3-aminopyrrolidin-1-yl)benzylidene)thiazolidine-2,4-dione hydrochloride]	> 95	67.1	–
N[C@@H]1CCCN(c2c(/C=C3\SC(=O)NC3=O)cccc2OCC(F)(F)F)C1 [Example 122Y, (R,Z)-5-(2-(3-aminopiperidin-1-yl)-3-(2,2,2-trifluoroethoxy)benzylidene)thiazolidine-2,4-dione hydrochloride]	> 95	> 95	–
N[C@H]1CCN(c2c(/C=C3\SC(=O)NC3=O)cccc2OCC(F)(F)F)C1 [Example 122Z, (S,Z)-5-(2-(3-aminopyrrolidin-1-yl)-3-(2,2,2-trifluoroethoxy)benzylidene)thiazolidine-2,4-dione hydrochloride]	> 95	> 95	–
NCCCN[C@H]1CCN(c2ccc(C(F)(F)F)cc2/C=C2\SC(=O)NC2=O)C1 [Example 123, (S,Z)-5-(2-(3-(3-aminopropylamino)pyrrolidin-1-yl)-5-(trifluoromethyl)benzylidene)thiazolidine-2,4-dione hydrochloride]	> 95	> 95	–
COc1cccc(/C=C2\SC(=O)NC2=O)c1N1CC[C@H](NCCCN)C1 [Example 124]	> 95	> 95	–
NCCCN[C@H]1CCN(c2c(Cl)cccc2/C=C2\SC(=O)NC2=O)C1 [Example 125]	> 95	> 95	–
COc1cc(/C=C2\SC(=O)NC2=O)c(N2CCC(NCCCN)C2)cc1OC (centres unmarked) [Example 126]	> 95	> 95	–
NCCCN1CCN(c2ccccc2/C=C2\SC(=O)NC2=O)CC1 [Example 127]	> 95	> 95	–
COc1cc(/C=C2\SC(=O)NC2=O)c(N2CCC(NC(=O)CCN)C2)cc1OC (centres unmarked) [Example 128]	81.2	49	–
NCCC(=O)N1CCN(c2ccccc2/C=C2\SC(=O)NC2=O)CC1 [Example 129A]	> 95	> 95	–
NCCCN[C@@H]1CCCN(c2c(Cl)cccc2/C=C2\SC(=O)NC2=O)C1 [Example 129B]	> 95	> 95	–
COc1ccc(OCCCN)c(C=C2SC(=O)NC2=O)c1 [Example 129C]	85	52.1	–
CC(=O)N1CCN(c2ccccc2/C=C2\SC(=O)NC2=O)CC1 [Example 130, (5Z)-5-[2-(4-acetylpiperazin-1-yl)benzylidene]-1,3-thiazolidine-2,4-dione]	–	45.5	66.2
COc1cc(/C=C2\SC(=O)NC2=O)c(N2CCC(NC(C)=O)C2)cc1OC (centres unmarked) [Example 131A]	27.1	< 5	–
CC(=O)Nc1ccc(N2CCC(N(C)C)C2)c(/C=C2\SC(=O)NC2=O)c1 (centres unmarked) [Example 131B]	< 5	< 5	–
COc1cc(/C=C2\SC(=O)NC2=O)c(N2CCC(NCCO)C2)cc1OC (centres unmarked) [Example 132, (Z)-5-(2-(3-(2-hydroxyethylamino)pyrrolidin-1-yl)-4,5-dimethoxybenzylidene)thiazolidine-2,4-dione]	93	88.1	–
O=C1NC(=O)/C(=C/c2cccc(Cl)c2N2CCC[C@@H](NCCO)C2)S1 [Example 133]	> 95	93.4	–
O=C1NC(=O)/C(=C/c2cccc(Cl)c2N2CCC[C@@H](NCCCO)C2)S1 [Example 134]	> 95	85.2	–
